Results published in ChEMBL document CHEMBL1131666, “Discovery of a novel series of selective MMP inhibitors: identification of the gamma-sulfone-thiols” (Bioorg Med Chem Lett, 1999).

Assays:
Collagenase 3 = Collagenase 3 (Homo sapiens, UniProt P45452); experiment: Inhibition of Matrix metalloprotease-13 (MMP-13)
Interstitial collagenase = target: T1, Interstitial collagenase (Homo sapiens, UniProt P03956); experiment: Inhibition of matrix metalloprotease-1 (MMP-1)
T1 sequence (P03956 whole entry): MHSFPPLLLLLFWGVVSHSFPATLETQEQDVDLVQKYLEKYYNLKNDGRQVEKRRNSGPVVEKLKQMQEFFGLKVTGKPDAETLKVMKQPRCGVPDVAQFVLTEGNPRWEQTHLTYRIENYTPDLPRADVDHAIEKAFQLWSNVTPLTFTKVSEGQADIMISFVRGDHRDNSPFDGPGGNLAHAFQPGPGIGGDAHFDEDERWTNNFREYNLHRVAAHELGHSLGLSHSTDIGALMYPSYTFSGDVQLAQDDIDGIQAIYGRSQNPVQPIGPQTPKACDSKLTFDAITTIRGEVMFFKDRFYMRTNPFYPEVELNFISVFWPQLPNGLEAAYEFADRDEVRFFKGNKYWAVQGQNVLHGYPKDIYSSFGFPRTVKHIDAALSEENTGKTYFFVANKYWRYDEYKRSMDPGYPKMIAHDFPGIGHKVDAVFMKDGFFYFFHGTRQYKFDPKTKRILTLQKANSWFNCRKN

Neutrophil collagenase = Neutrophil collagenase (Homo sapiens, UniProt P22894); experiment: Inhibition of Matrix metalloprotease-8
Chain of Neutrophil collagenase (P22894 whole entry): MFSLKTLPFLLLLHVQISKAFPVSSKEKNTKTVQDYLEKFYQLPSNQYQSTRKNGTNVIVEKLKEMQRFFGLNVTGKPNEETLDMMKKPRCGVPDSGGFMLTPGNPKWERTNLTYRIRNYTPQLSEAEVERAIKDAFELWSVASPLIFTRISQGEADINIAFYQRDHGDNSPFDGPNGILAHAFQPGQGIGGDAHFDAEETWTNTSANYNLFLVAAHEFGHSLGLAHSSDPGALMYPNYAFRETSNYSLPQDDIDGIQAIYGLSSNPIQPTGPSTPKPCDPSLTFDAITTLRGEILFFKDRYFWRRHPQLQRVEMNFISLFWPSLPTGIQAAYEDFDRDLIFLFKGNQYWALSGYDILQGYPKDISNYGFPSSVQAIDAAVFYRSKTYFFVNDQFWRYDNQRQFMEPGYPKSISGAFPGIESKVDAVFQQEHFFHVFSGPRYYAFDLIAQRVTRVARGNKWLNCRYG

Stromelysin-1 = Stromelysin-1 (Homo sapiens, UniProt P08254); experiment: Inhibition of matrix metalloprotease-3 (MMP-3)
Chain of Stromelysin-1 (P08254 whole entry): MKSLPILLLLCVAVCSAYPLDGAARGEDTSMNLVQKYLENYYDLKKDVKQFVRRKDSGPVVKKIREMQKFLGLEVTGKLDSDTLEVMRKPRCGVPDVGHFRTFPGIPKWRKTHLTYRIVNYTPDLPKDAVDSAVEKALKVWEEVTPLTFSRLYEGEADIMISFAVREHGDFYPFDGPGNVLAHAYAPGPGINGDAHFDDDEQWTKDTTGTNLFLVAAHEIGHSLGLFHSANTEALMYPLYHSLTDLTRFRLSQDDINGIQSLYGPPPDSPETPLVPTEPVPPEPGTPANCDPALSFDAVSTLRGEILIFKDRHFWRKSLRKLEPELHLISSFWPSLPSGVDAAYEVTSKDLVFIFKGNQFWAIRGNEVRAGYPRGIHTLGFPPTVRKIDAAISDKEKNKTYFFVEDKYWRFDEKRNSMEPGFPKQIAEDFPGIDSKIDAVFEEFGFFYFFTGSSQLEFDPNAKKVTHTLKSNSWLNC

| Structure (SMILES) | IC50 (Collagenase 3) [nM] | IC50 (Interstitial collagenase) [nM] | IC50 (Neutrophil collagenase) [nM] | IC50 (Stromelysin-1) [nM] |
| --- | --- | --- | --- | --- |
| COc1ccc(S(=O)(=O)CCC(C)S)cc1 (stereo not drawn) | 32 | 8000 |  |  |
| CCCC(CCS)S(=O)(=O)c1ccc(OC)cc1 (stereo not drawn) | 6 |  |  |  |
| CCCCC(S)CCS(=O)(=O)c1ccc(OC)cc1 (stereo not drawn) |  | > 10000 |  |  |
| COc1ccc(S(=O)(=O)C[C@@H](C)CS)cc1 | 250 | 5000 |  |  |
| COc1ccc(S(=O)(=O)C(CCS)c2ccccc2)cc1 (stereo not drawn) |  | > 10000 |  |  |
| COc1ccc(S(=O)(=O)C[C@H](C)CS)cc1 |  | > 10000 |  |  |
| O=S(=O)(CCCS)c1ccc(Sc2ccccc2)cc1 |  | > 10000 | 36 | 150 |

More lines, now with the values ahead:

| IC50 (Collagenase 3) [nM] | IC50 (Interstitial collagenase) [nM] | IC50 (Neutrophil collagenase) [nM] | IC50 (Stromelysin-1) [nM] | Structure (SMILES) |
| --- | --- | --- | --- | --- |
|  | 4000 |  |  | COC(=O)C(S)CCS(=O)(=O)c1ccc(OC)cc1 (stereo not drawn) |
|  | > 10000 |  |  | COc1ccc(S(=O)(=O)CC(C)(C)CS)cc1 |
| 0.5 | 1500 | 4 | 500 | O=S(=O)(CCCS)c1ccc(Oc2ccccc2)cc1 |
|  | > 10000 |  |  | COc1ccc(S(=O)(=O)CCCS)cc1 |
